In ChEMBL document CHEMBL1201862, “PubChem BioAssay data set” (2004):
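Protocol summary: plate cells (96-well), add compound at 5 concentrations, incubate 48 h, interpolate endpoints linearly. At the GI50, growth is halved.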 The source made the active and inactive calls. No stated cut-off is given here; in the data, active = GI50 up to about 1.1 µM and inactive = higher.

What was measured:
Test in all cases: NCI-60 cell line screen, 48 h
[1] = tested on: MOLT-4
[2] = tested on: RPMI-8226
[3] = tested on: NCI-H23
[4] = tested on: RXF 393
[5] = tested on: Malme-3M
[6] = tested on: NCI-H522
[7] = tested on: Hs-578T
[8] = tested on: MCF7
[9] = tested on: NCI/ADR-RES
[10] = tested on: MDA-N
[11] = tested on: HOP-92
[12] = tested on: SN12C
[13] = tested on: COLO 205
[14] = tested on: UACC-62
[15] = tested on: HCC 2998
[16] = tested on: MDA-MB-435
[17] = tested on: A549
[18] = tested on: U-251
[19] = tested on: NCI-H226
[20] = tested on: LOX IMVI

Compound | GI50 [1] | GI50 [2] | GI50 [3] | GI50 [4] | GI50 [5] | GI50 [6] | GI50 [7] | GI50 [8] | GI50 [9] | GI50 [10] | GI50 [11] | GI50 [12] | GI50 [13] | GI50 [14] | GI50 [15] | GI50 [16] | GI50 [17] | GI50 [18] | GI50 [19] | GI50 [20]
COC1N(C2CC(O)C(CO)O2)C(=O)NC(=O)C1(F)Br (configuration not stated) | 11 µM (inactive) | 19.3 µM (inactive) | 6.73 µM (inactive) | 46.7 µM (inactive) | 15.1 µM (inactive) | 49.1 µM (inactive) | 24.5 µM (inactive) | 0.52 µM (active) | 10.7 µM (inactive) | 18.7 µM (inactive) | 22 µM (inactive) | 9.25 µM (inactive) | 21.6 µM (inactive) | 4.27 µM (inactive) | 0.887 µM (active) | 39.6 µM (inactive) | 1.12 µM (active) | 23.9 µM (inactive) | > 50 µM (inactive) | 6.1 µM (inactive)
NCCNCC1CCNCC1 | > 100 µM (inactive) | > 100 µM (inactive) | > 100 µM (inactive) | > 100 µM (inactive) | > 100 µM (inactive) | > 100 µM (inactive) | > 100 µM (inactive) | > 100 µM (inactive) | > 100 µM (inactive) | > 100 µM (inactive) | > 100 µM (inactive) | > 100 µM (inactive) | > 100 µM (inactive) | > 100 µM (inactive) | > 100 µM (inactive) | > 100 µM (inactive) | > 100 µM (inactive) | > 100 µM (inactive) | > 100 µM (inactive) | > 100 µM (inactive)
CN1CCCCC1CCN1c2ccccc2Sc2ccc([S+](C)[O-])cc21 (configuration not stated) [MESORIDAZINE] | > 100 µM (inactive) | > 100 µM (inactive) | > 100 µM (inactive) | > 100 µM (inactive) | > 100 µM (inactive) | > 100 µM (inactive) | > 100 µM (inactive) | > 100 µM (inactive) | > 100 µM (inactive) | > 100 µM (inactive) | > 100 µM (inactive) | > 100 µM (inactive) | > 100 µM (inactive) | > 100 µM (inactive) | – | > 100 µM (inactive) | > 100 µM (inactive) | > 100 µM (inactive) | > 100 µM (inactive) | > 100 µM (inactive)
CCC1c2[nH]c3ccccc3c2C[C@H]2C(=O)NC(CCC(=O)OC(C)(C)C)C(=O)N12 (some centres not stated) | 35.3 µM (inactive) | 31.6 µM (inactive) | 68.7 µM (inactive) | 52.7 µM (inactive) | 12.6 µM (inactive) | 29.6 µM (inactive) | 32.7 µM (inactive) | 42.4 µM (inactive) | 62.5 µM (inactive) | 51.5 µM (inactive) | 30.6 µM (inactive) | 39.4 µM (inactive) | 32.4 µM (inactive) | 66.5 µM (inactive) | – | 49.5 µM (inactive) | 43 µM (inactive) | 56.6 µM (inactive) | > 100 µM (inactive) | 51.4 µM (inactive)
CC(c1ccccc1)n1c2ccccc2c2c(N)ncnc21 (configuration not stated) | 23 µM (inactive) | 42.4 µM (inactive) | 20.4 µM (inactive) | 18.3 µM (inactive) | 21.2 µM (inactive) | 13.6 µM (inactive) | 18 µM (inactive) | 20.7 µM (inactive) | 20.4 µM (inactive) | 22.6 µM (inactive) | 13.6 µM (inactive) | – | – | – | 18.2 µM (inactive) | 16.9 µM (inactive) | 21.6 µM (inactive) | 16.7 µM (inactive) | – | 17.5 µM (inactive)
c1sc(NC2=NCCO2)c2c1CCCC2 | 85.5 µM (inactive) | > 100 µM (inactive) | > 100 µM (inactive) | > 100 µM (inactive) | > 100 µM (inactive) | > 100 µM (inactive) | > 100 µM (inactive) | > 100 µM (inactive) | > 100 µM (inactive) | > 100 µM (inactive) | > 100 µM (inactive) | – | > 100 µM (inactive) | > 100 µM (inactive) | > 100 µM (inactive) | > 100 µM (inactive) | > 100 µM (inactive) | > 100 µM (inactive) | > 100 µM (inactive) | > 100 µM (inactive)
N=C(N)NCCCC(=O)O | > 100 µM (inactive) | > 100 µM (inactive) | > 100 µM (inactive) | > 100 µM (inactive) | > 100 µM (inactive) | > 100 µM (inactive) | > 100 µM (inactive) | > 100 µM (inactive) | > 100 µM (inactive) | > 100 µM (inactive) | > 100 µM (inactive) | > 100 µM (inactive) | > 100 µM (inactive) | > 100 µM (inactive) | – | > 100 µM (inactive) | > 100 µM (inactive) | > 100 µM (inactive) | > 100 µM (inactive) | > 100 µM (inactive)
